Results taken from patent US10577610B2, “EpCAM aptamers and conjugates thereof” (Deakin University, priority 2015, dated 2020).
[invdT] = inverted (3'-3') thymidine; {TYE665} = TYE665 fluorescent dye

Key:
HEK293T and K562 = assay: Flow cytometry binding to EpCAM negative cell lines; conditions: HEK293T and K562, 0 and 100 nM
Method: (§1) The equilibrium dissociation constant (KD) of each DNA EpCAM aptamer (Ep7, Ep8 and Ep9) was determined by measuring its binding to native EpCAM protein expressed on the cell surface using flow cytometry. HT29, HEY and HEK293T (5×10^5) cells were first incubated with blocking buffer (PBS containing 10% FCS, 1 mg/mL tRNA, 1 mg/mL BSA) for 30 minutes followed by a single wash with binding buffer (PBS containing 10% FCS, 1 mg/mL tRNA, 1 mg/mL BSA) prior to incubation with serial dilutions of concentrations of the respective TYE665-labelled aptamers (0 to 200 nM) in binding buffer for 30 min at 37° C. The cells were washed three times with PBS and resuspended in PBS prior to flow cytometric analysis. The fluorescent intensity was determined using a FACS Canto II flow cytometer (Becton Dickinson), counting 10,000 events for each sample. The mean fluorescent intensity of each concentration was […] the auto fluorescent control and the KD for each aptamer was calculated from the normalised values for fluorescent intensity.

[1] = Doxorubicin loading efficiency by fluorescence spectroscopy; conditions: mean±SEM
Text: The anthracycline class of drugs, including DOX, have fluorescence properties that become quenched after intercalation into DNA (Valentini L et al (1985) II Farmaco edizione scientifica 40(6):377-90. The natural fluorescence of doxorubicin and its subsequent quenching after intercalating with the DNA EpCAM aptamers was utilised for the measurement of the extent of doxorubicin conjugation via Fluorescent Spectroscopy. The conjugation process was studied using different aptamer-doxorubicin molar ratios (0, 0.01, 0.04, 0.08, 0.1, 0.2, 0.3, 0.4, 0.5, and 0.6) and analysed with a fluorescence plate reader based on a standard curve of free doxorubicin.
Prior to conjugation, aptamers were prepared for application as previously described. DOX was then combined with aptamer in conjugation buffer containing 0.1 M sodium acetate, 0.05 M NaCl, and 5 mM MgCl2 and incubated at 37° C. in an Orbital mixer/incubator (RATEK) for 1 hour with agitation (75 r.p.m). The conjugate was then passed through a Sephadex®G-10 medium column (Sigma-Aldrich) to separate the aptamer: doxorubicin conjugate from free DOX. As DOX has a natural fluorescence which is subsequently quenched following intercalation into double stranded DNA, this characteristic of DOX was exploited to determine the amount of DOX that was intercalated into the double stranded stem region of the conjugate aptamers. After column separation, DOX was extracted from the conjugate yield by adding 150 uL of acetonitrile. This solution was then centrifuged for 5 min at 21,000 g. Eighty microliters of supernatant was removed and fluorescent intensity was quantified with a fluorescent plate reader. A calibration standard curve was prepared with known concentrations of DOX under the same condition
Data was analysed using Graph Pad Prism 3 and data was reported as mean and standard error of the mean (mean±SEM) unless otherwise stated.

HT29 and HEY cells = assay: Confocal microscopy internalisation of EpCAM aptamers into EpCAM positive cells; format: cell-based; conditions: 200 nM, 60 min
Method: The ability of each DNA EpCAM aptamer to be internalised was established through confocal microscopy. HT29, HEY, K652 and HEK293T were seeded at 8×10^5 cells per well in 8-chamber slide for 24 h in preparation for confocal […]. Cells were incubated with blocking buffer for 60 min, followed by resuspension in binding buffer and containing 200 nM EpCAM aptamer or negative control aptamer and incubated for 60 min at 37° C. Bisbenzimide Hoechst 33342 (3 mg/ml) (Sigma) was added to the cells during the final 10 min of incubation. The aptamer solution was removed and the cells were washed three times for 5 min each in PBS prior to visualisation using a FluoView FV10i laser scanning confocal microscope (Olympus).

[2] = biological target: T1, native EpCAM protein expressed on the cell surface (HT29 cells) (Homo sapiens, UniProt P16422); assay: Flow cytometry binding assay on HT29 cells (EpCAM-positive); conditions: n=3
T1 construct: endogenous in cells; host or cells: HT29 cells
T1 sequence (P16422 24-314): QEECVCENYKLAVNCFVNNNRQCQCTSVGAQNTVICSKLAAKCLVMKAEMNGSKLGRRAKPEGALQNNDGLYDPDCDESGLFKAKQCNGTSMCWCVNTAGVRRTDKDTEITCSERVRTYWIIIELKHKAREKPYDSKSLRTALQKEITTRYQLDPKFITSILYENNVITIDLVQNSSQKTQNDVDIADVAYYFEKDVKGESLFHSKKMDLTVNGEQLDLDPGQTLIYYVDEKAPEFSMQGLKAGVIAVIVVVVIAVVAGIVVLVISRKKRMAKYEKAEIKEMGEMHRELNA
Method: as §1

[3] = biological target: T2, native EpCAM protein expressed on the cell surface (HEY cells) (Homo sapiens, UniProt P16422); assay: Flow cytometry binding assay on HEY cells (EpCAM-positive); conditions: HEY (EpCAM-positive) cells, flow cytometry, n=3
T2 construct: host or cells: HEY ovarian cancer cells
T2 sequence (P16422 24-314): T1 sequence (P16422 24-314)
Method: In order to determine the binding affinity (equilibrium dissociation constant KD) of the aptamers. Binding assays were conducted to measure the binding to native EpCAM protein expressed on the cell surface. The aptamers were incubated with the cells at concentrations ranging from 0 nM to 400 nM. These were subsequently analysed by flow cytometry. Aptamers were thawed from storage (−20° C.) prior to use. These were then diluted via serial dilutions with phosphate buffered saline (PBS) in order to achieve the desired concentrations. PBS was supplemented with a MgCl2 concentration appropriate for the aptamer (1 mM for anti-TfR aptamers; 5 mM for conjugate aptamers). Aptamers were then folded into their 3D structures using a thermocycler (85° C. for 5 minutes, slow cooling to 22° C. over 10 minutes and 37° C. for 15 minutes).
Concurrently, subcultured cells were incubated in blocking buffer (PBS with 10% FCS, 1 mg/mL BSA, 0.1 mg/mL tRNA) for 30 minutes. Following centrifugation, blocking buffer was removed and cells were resuspended in binding buffer (PBS with 10% FCS, 1 mg/mL BSA, 0.1 mg/mL tRNA). Cells (50 μL) were then incubated with the aptamers (50 μL) for 30 minutes at 37° C. at a range of concentrations (0 nM, 20 nM, 40 nM, 60 nM, 80 nM, 100 nM, 200 nM, 400 nM). Following this, cells were washed in 100 μL PBS three times before final resuspension for flow cytometry.
Aptamers were incubated with the chosen cell lines (bEnd.3 cells, mouse cells positive for TfR; HEY cells, human ovarian cancer cell line positive for EpCAM; and MOLT4 human cells negative for both TfR and EpCAM) at a range of concentrations. Aptamer-bound cells were analysed using a FACS Canto II flow cytometer (Becton Dickinson), counting 10,000 events for each sample, in order to determine the binding affinity of the aptamers. […] The value for the auto fluorescent 0 nM concentration was subtracted from the other figures to account for background fluorescence (Li N et al (2009) Journal of Proteome Research 8(5):2438-48). The resultant values were then used to determine the dissociation constant (KD) via the Graph Pad Prism 3 software. […]
The binding affinities of aptamers Bi1, Bi2 and Bi3 were determined semi-quantitatively via flow cytometry, using bEnd.3 cells to assess reactivity with TfR, HEY cells to determine EpCAM specificity and the MOLT4 cell line as a negative control. Three independent binding assays were performed for these aptamer against all three cell lines (bEnd.3, HEY and MOLT4). […]

mouse TfR = biological target: T3, mouse TfR (Mus musculus, UniProt Q62351); assay: Flow cytometry binding assay on bEnd.3 cells (TfR-positive); conditions: bEnd.3 (TfR-positive) cells, n=3
T3 construct: bEnd.3 cells, mouse cells positive for TfR; host or cells: bEnd.3 mouse cerebral endothelial cells
T3 sequence (Q62351 whole entry): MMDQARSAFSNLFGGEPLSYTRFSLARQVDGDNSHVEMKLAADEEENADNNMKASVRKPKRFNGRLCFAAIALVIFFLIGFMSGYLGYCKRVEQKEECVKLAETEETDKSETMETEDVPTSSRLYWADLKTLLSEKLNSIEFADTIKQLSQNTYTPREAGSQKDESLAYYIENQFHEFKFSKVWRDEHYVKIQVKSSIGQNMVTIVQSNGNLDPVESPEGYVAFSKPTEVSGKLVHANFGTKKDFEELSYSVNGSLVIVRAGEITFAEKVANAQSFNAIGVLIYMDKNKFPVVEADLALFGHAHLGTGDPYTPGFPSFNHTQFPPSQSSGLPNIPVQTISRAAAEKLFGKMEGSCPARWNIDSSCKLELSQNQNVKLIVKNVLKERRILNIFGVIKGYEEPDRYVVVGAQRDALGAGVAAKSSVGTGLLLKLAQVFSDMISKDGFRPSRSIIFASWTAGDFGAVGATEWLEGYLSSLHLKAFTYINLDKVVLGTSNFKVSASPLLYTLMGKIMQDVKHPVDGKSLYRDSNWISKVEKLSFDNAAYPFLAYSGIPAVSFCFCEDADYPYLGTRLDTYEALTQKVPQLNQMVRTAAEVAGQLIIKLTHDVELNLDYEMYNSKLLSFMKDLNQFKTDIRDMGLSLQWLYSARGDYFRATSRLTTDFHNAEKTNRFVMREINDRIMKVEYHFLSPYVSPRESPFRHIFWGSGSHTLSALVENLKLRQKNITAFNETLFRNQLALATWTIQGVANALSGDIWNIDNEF
Method: In order to determine the binding affinity (equilibrium dissociation constant KD) of the aptamers. Binding assays were conducted to measure the binding to native EpCAM protein expressed on the cell surface. The aptamers were incubated with the cells at concentrations ranging from 0 nM to 400 nM. These were subsequently analysed by flow cytometry. Aptamers were thawed from storage (-20° C.) prior to use. These were then diluted via serial dilutions with phosphate buffered saline (PBS) in order to achieve the desired concentrations. PBS was supplemented with a MgCl2 concentration appropriate for the aptamer (1 mM for anti-TfR aptamers; 5 mM for conjugate aptamers). […] Concurrently, subcultured cells were incubated in blocking buffer (PBS with 10% FCS, 1 mg/mL BSA, 0.1 mg/mL tRNA) for 30 minutes. Following centrifugation, blocking buffer was removed and cells were resuspended in binding buffer (PBS with 10% FCS, 1 mg/mL BSA, 0.1 mg/mL tRNA). Cells (50 μL) were then incubated with the aptamers (50 μL) for 30 minutes at 37° C. at a range of concentrations (0 nM, 20 nM, 40 nM, 60 nM, 80 nM, 100 nM, 200 nM, 400 nM). Following this, cells were washed in 100 μL PBS three times before final resuspension for flow cytometry. Aptamers were incubated with the chosen cell lines (bEnd.3 cells, mouse cells positive for TfR; HEY cells, human ovarian cancer cell line positive for EpCAM; and MOLT4 human cells negative for both TfR and EpCAM) at a range of concentrations. Aptamer-bound cells were analysed using a FACS Canto II flow cytometer (Becton Dickinson), counting 10,000 events for each sample, in order to determine the binding affinity of the aptamers. […] The value for the auto fluorescent 0 nM concentration was subtracted from the other figures to account for background fluorescence (Li N et al (2009) Journal of Proteome Research 8(5):2438-48). […] The binding affinities of aptamers TfR1, TfR2, […] determined semi-quantitatively via flow cytometry, using bEnd.3 mouse cerebral endothelial cells as a Tf R-positive cell line and MOLT4 acute lymphoblastic leukaemia cells-which express the human TfR, but not the mouse TfR (Sutherland R et al (1981) PNAS 78(7):4515-9)-as a negative control. Three independent binding assays were performed for each aptamer against each cell line. […] Three independent binding assays were performed for these aptamer against all three cell lines (bEnd.3, HEY and MOLT4).

For “Ep9: truncated DNA EpCAM aptamer derived from SYL3C, SEQ ID NO:12 (GGGGTTGGCCCC; DNA, 5' {TYE665}, 3' [invdT], backbone not given here)”, the “Binding to EpCAM negative cell lines” value (HEK293T and K562) was “did not bind”, the “Molar ratio aptamer:dox” value [1] was 0.35 ± 0.06 and the “Internalisation by EpCAM positive cells” value (HT29 and HEY cells) was “internalised”. For the same substance, the Kd [2] was 31.8 ± 7.65 nM and the Kd [3] was 266 ± 121 nM.
In the case of “Ep7: truncated DNA EpCAM aptamer derived from SYL3C, SEQ ID NO:9 (ACAGAGGTTGCGTCTG; DNA, [invdT] at 3' end, 5' {TYE665}, backbone not given here)”, the “Binding to EpCAM negative cell lines” value (HEK293T and K562) is reported as “did not bind”, the “Molar ratio aptamer:dox” value [1] is reported as 0.42 ± 0.11 and the “Internalisation by EpCAM positive cells” value (HT29 and HEY cells) is reported as “internalised”. For the same substance, the Kd [2] was 11 ± 2.79 nM and the Kd [3] was 248 ± 82.2 nM.
In the case of “Ep8: truncated DNA EpCAM aptamer derived from SYL3C, SEQ ID NO:11 (CCCACGTTGTCATGGG; DNA, 5' {TYE665}, 3' [invdT], backbone not given here)”, the “Binding to EpCAM negative cell lines” value (HEK293T and K562) is reported as “did not bind”, the “Molar ratio aptamer:dox” value [1] is reported as 0.38 ± 0.06 and the “Internalisation by EpCAM positive cells” value (HT29 and HEY cells) is reported as “internalised”. It also gave a Kd [2] of 6.19 ± 2.24 nM and a Kd [3] of 696 ± 486 nM.
In the case of “TfR1: truncated fourteen nucleotide DNA aptamer against mouse TfR, SEQ ID NO:4 (GCGTGTGCACACGC; DNA, backbone not given here; further chemistry not fully specified)”, the Kd (mouse TfR) is reported as 5760 ± 7120 nM.
Work on “TfR2: version of TfR1 with scrambled binding loop sequence, SEQ ID NO:5 (DNA GCGTGGGCCCACGC; DNA, backbone not given here; further chemistry not fully specified)” yielded a Kd (mouse TfR) of 525 ± 161 nM.
With “5′ CACTACAGAGGTTGCGTCTGTCCCACGTTGTCATGGGGGGTTGGCCTG 3′ (CACTACAGAGGTTGCGTCTGTCCCACGTTGTCATGGGGGGTTGGCCTG; listed as DNA, chemistry not fully specified) [Full length EpCAM aptamer, reference compound]” the “Molar ratio aptamer:dox” value [1] was 0.53 ± 0.13, the Kd [2] was 9 ± 1.68 nM and the Kd [3] was 495 ± 147 nM.
For “Ex Ep7: extended Ep7 aptamer with the same binding loop as Ep7, SEQ ID NO:13 (CGCGCGCCGCAGGTTGCGTGCGGCGCGCG; DNA, 5' {TYE665}, 3' [invdT], backbone not given here)”, the “Molar ratio aptamer:dox” value [1] was 1.17 ± 0.02, the “Internalisation by EpCAM positive cells” value (HT29 and HEY cells) was “internalised” and the Kd [3] was 63.7 ± 14.4 nM.
For “Scr Ex Ep7: scrambled extended Ep7 aptamer with randomly selected base pairs in the binding loop, SEQ ID NO:14 (CGCGCGCCGCATTCCTTTTGCGGCGCGCG; DNA, 5' {TYE665}, 3' [invdT], backbone not given here)”, the “Molar ratio aptamer:dox” value [1] was 1.01 ± 0.01, the “Internalisation by EpCAM positive cells” value (HT29 and HEY cells) was “not internalised” and the Kd [3] was 521 ± 272 nM.
